Measurements taken from ChEMBL document CHEMBL1201862, “PubChem BioAssay data set” (2004).
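48-hour exposure; five concentrations; linearly interpolated endpoints. The concentration for 50% growth inhibition is given as GI50.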 The source made the active and inactive calls. No stated cut-off is given here; in the data, active = GI50 up to about 1.1 µM and inactive = higher.

Tests used:
Experiment in all cases: NCI anticancer screen, dose series, 48 h
[1] = tested on: ACHN
[2] = tested on: BT-549
[3] = tested on: COLO 205
[4] = tested on: HCT-15
[5] = tested on: HOP-62
[6] = tested on: IGROV-1
[7] = tested on: LOX IMVI
[8] = tested on: M19-MEL
[9] = tested on: MDA-MB-231
[10] = tested on: MOLT-4
[11] = tested on: NCI-H460
[12] = tested on: NCI-H522
[13] = tested on: NCI/ADR-RES
[14] = tested on: OVCAR-3
[15] = tested on: OVCAR-4
[16] = tested on: SF-295
[17] = tested on: SK-MEL-28
[18] = tested on: SK-MEL-2
[19] = tested on: SK-OV-3
[20] = tested on: SNB-19

Structure (SMILES) | GI50 [1] | GI50 [2] | GI50 [3] | GI50 [4] [µM] | GI50 [5] | GI50 [6] | GI50 [7] | GI50 [8] | GI50 [9] | GI50 [10] | GI50 [11] | GI50 [12] | GI50 [13] | GI50 [14] | GI50 [15] | GI50 [16] | GI50 [17] | GI50 [18] | GI50 [19] | GI50 [20]
CCN(CC)c1ccc(C(=C2C=CC(=[N+](CC)CC)C=C2)c2ccc(N(CC)CC)cc2)cc1 | 0.0446 µM (active) | 0.0332 µM (active) | 0.0627 µM (active) | 0.194 | 0.238 µM (active) | 0.146 µM (active) | 0.0541 µM (active) | 0.0948 µM (active) | 0.063 µM (active) | 0.115 µM (active) | 0.0411 µM (active) | 0.113 µM (active) | 0.521 µM (active) | 0.0393 µM (active) | 0.234 µM (active) | 0.0483 µM (active) | 0.489 µM (active) | 0.117 µM (active) | 0.0773 µM (active) | 0.101 µM (active)
O=C1CCCC[C@H]1[C@H]1CCC[C@@H]([C@H]2CCCCC2=O)C1=O | > 100 µM (inactive) | – | > 100 µM (inactive) | > 100 | > 100 µM (inactive) | > 100 µM (inactive) | > 100 µM (inactive) | > 100 µM (inactive) | – | > 100 µM (inactive) | > 100 µM (inactive) | > 100 µM (inactive) | – | > 100 µM (inactive) | > 100 µM (inactive) | > 100 µM (inactive) | > 100 µM (inactive) | > 100 µM (inactive) | > 100 µM (inactive) | > 100 µM (inactive)
CCCN(CCCCC(NC(C)=O)C(=O)NCc1ccccc1)C(=O)N(C)N=O (stereo unspecified) | > 100 µM (inactive) | – | > 100 µM (inactive) | > 100 | > 100 µM (inactive) | > 100 µM (inactive) | > 100 µM (inactive) | > 100 µM (inactive) | – | 92 µM (inactive) | > 100 µM (inactive) | > 100 µM (inactive) | – | > 100 µM (inactive) | > 100 µM (inactive) | > 100 µM (inactive) | > 100 µM (inactive) | > 100 µM (inactive) | > 100 µM (inactive) | > 100 µM (inactive)
N=C(N)NS(=O)(=O)c1ccc(NCc2c3ccccc3nc3ccccc23)cc1 | 1.39 µM (inactive) | 7.16 µM (inactive) | > 80.9 µM (inactive) | 40.3 | 0.678 µM (active) | 23.4 µM (inactive) | 0.946 µM (active) | 10 µM (inactive) | 23 µM (inactive) | 0.0308 µM (active) | 0.0371 µM (active) | 2.28 µM (inactive) | – | 11.6 µM (inactive) | 39.5 µM (inactive) | 2.45 µM (inactive) | 47.3 µM (inactive) | > 20 µM (inactive) | 2.73 µM (inactive) | 0.711 µM (active)
O=S(=O)(c1ccccc1)N1CCC1c1ccccc1 (stereo unspecified) | > 100 µM (inactive) | – | > 100 µM (inactive) | > 100 | > 100 µM (inactive) | > 100 µM (inactive) | > 100 µM (inactive) | > 100 µM (inactive) | – | 33.7 µM (inactive) | > 100 µM (inactive) | 98.9 µM (inactive) | – | > 100 µM (inactive) | 89.5 µM (inactive) | > 100 µM (inactive) | > 100 µM (inactive) | > 100 µM (inactive) | > 100 µM (inactive) | > 100 µM (inactive)
COc1cccc2c1C(=O)c1c(O)c3c(c(O)c1C2=O)CC(O)(C(C)=O)CC3OC1CC([N+](C)(C)C)C(O)C(C)O1 (stereo unspecified) | > 100 µM (inactive) | – | 48.1 µM (inactive) | > 100 | > 100 µM (inactive) | 42.1 µM (inactive) | 51.9 µM (inactive) | 70.6 µM (inactive) | – | 12.4 µM (inactive) | 36.4 µM (inactive) | 31.3 µM (inactive) | – | > 100 µM (inactive) | > 100 µM (inactive) | > 100 µM (inactive) | > 100 µM (inactive) | > 100 µM (inactive) | > 100 µM (inactive) | > 100 µM (inactive)
COS(=O)CCOC(=O)c1ccccc1SSc1ccccc1C(=O)OCCS(=O)OC (stereo unspecified) | 43.7 µM (inactive) | – | 23.4 µM (inactive) | 23.8 | > 100 µM (inactive) | > 100 µM (inactive) | 22.2 µM (inactive) | 21.2 µM (inactive) | – | 3.44 µM (inactive) | > 100 µM (inactive) | 4.78 µM (inactive) | – | 22.1 µM (inactive) | 16.4 µM (inactive) | 33.2 µM (inactive) | 30.7 µM (inactive) | 37.7 µM (inactive) | > 100 µM (inactive) | > 100 µM (inactive)
Nc1nc(CCc2n[nH]c(N)n2)n[nH]1 | > 100 µM (inactive) | – | > 100 µM (inactive) | > 100 | > 100 µM (inactive) | > 100 µM (inactive) | > 100 µM (inactive) | > 100 µM (inactive) | – | > 100 µM (inactive) | > 100 µM (inactive) | > 100 µM (inactive) | – | > 100 µM (inactive) | > 100 µM (inactive) | > 100 µM (inactive) | > 100 µM (inactive) | > 100 µM (inactive) | > 100 µM (inactive) | > 100 µM (inactive)
Nc1ncnc2c1nc(Cl)n2[C@@H]1O[C@@H]2COP(=O)(O)O[C@H]2[C@H]1O [TOCLADESINE] | 5.05 µM (inactive) | 5.69 µM (inactive) | 10 µM (inactive) | 6.7 | 19.5 µM (inactive) | 24.5 µM (inactive) | 2.7 µM (inactive) | > 300 µM (inactive) | 21.5 µM (inactive) | 7 µM (inactive) | 7.03 µM (inactive) | 27.1 µM (inactive) | 6.67 µM (inactive) | 44.9 µM (inactive) | 16.6 µM (inactive) | 51.2 µM (inactive) | 295 µM (inactive) | > 99.8 µM (inactive) | 10.6 µM (inactive) | 122 µM (inactive)
